The subject of experiment [1] is Canis familiaris. Put plainly: Tested for Maximal behavioral effect(overt behavior) in dogs, activity is expressed as av score at a dose of 0.2 mg/kg. The experiment is classed as functional, Canis lupus familiaris.
Experiment [2] relates to Canis familiaris. Nature of the experiment: Cardiovascular effect for percentage change in heart rate in anesthetized dogs after 1 mg/kg iv dose. The experiment is classed as functional, Canis lupus familiaris.
In experiment [3] the test system is Canis familiaris. Nature of the experiment: Cardiovascular effect for percentage change in blood pressure in anesthetized dogs after 1 mg/kg iv dose. The experiment is classed as functional, Canis lupus familiaris.
Experiment [4] has as its system Canis familiaris. Put plainly: Tested for Maximal behavioral effect(overt behavior) in dogs, activity is expressed as av score at a dose of 0.05 mg/kg. The format is functional, Canis lupus familiaris.
Experiment [5] relates to Canis familiaris. Nature of the experiment: Tested for Maximal behavioral effect(overt behavior) in dogs, activity is expressed as av score at a dose of 0.1 mg/kg. The experiment is classed as functional, Canis lupus familiaris.
The subject of experiment [6] is Mus musculus. Put plainly: Tested for the ability to alter the spontaneous activity in mice at 0.1 mg/kg. The format is functional.
In experiment [7] the test system is Mus musculus. Put plainly: Tested for the ability to alter the spontaneous activity in mice at 0.3 mg/kg. The format is functional.
The test system of experiment [8] is Mus musculus. Nature of the experiment: Tested for the ability to alter the spontaneous activity in mice at 10 mg/kg. The format is functional.
For experiment [9], the system named is Mus musculus. Put plainly: Tested for the ability to alter the spontaneous activity in mice at 1 mg/kg. The experiment is classed as functional.
The subject of experiment [10] is Mus musculus. Put plainly: Tested for the ability to alter the spontaneous activity in mice at 3 mg/kg. The format is functional.
For experiment [11], the system named is Mus musculus. Put plainly: Tested for the ability to change in rectal temperature in mice at 0.3 mg/kg. The experiment is classed as functional.
In experiment [12] the test system is Mus musculus. Put plainly: Tested for the ability to change in rectal temperature in mice at 1 mg/kg. The format is functional.
Experiment [13] deals with Mus musculus. Put plainly: Tested for the ability to change in rectal temperature in mice at 10 mg/kg. The experiment is classed as functional.
Experiment [14] has as its system Mus musculus. Put plainly: Tested for the ability to change in rectal temperature in mice at 3 mg/kg. The experiment is classed as functional.
For experiment [15], the system named is Mus musculus. Put plainly: Tested for the ability to change in rectal temperature in mice at 0.1 mg/kg. The format is functional.
Experiment [16] concerns Canis familiaris. Put plainly: Tested for Maximal behavioral effect(overt behavior) in dogs, activity is expressed as av score at a dose of 0.5 mg/kg. The experiment is classed as functional, Canis lupus familiaris.
The subject of experiment [17] is Mus musculus. Put plainly: Tested for the ability to alter the spontaneous activity in mice at 30 mg/kg. The format is functional.
Experiment [18] relates to Mus musculus. Nature of the experiment: Tested for the ability to alter the spontaneous activity in mice at 6 mg/kg. The experiment is classed as functional.
Experiment [19] concerns Mus musculus. Put plainly: Tested for the ability to change in rectal temperature in mice a 3 mg/kg. The format is functional.
Experiment [20] relates to Mus musculus. Nature of the experiment: Tested for the ability to change in rectal temperature in mice at 30 mg/kg. The experiment is classed as functional.
Experiment [21] concerns Mus musculus. Nature of the experiment: Tested for the ability to change in rectal temperature in mice at 6 mg/kg. The format is functional.
The test system of experiment [22] is Canis familiaris. Nature of the experiment: Tested for Maximal behavioral effect(overt behavior) in dogs, activity is expressed as av score at a dose of 0.4 mg/kg. The format is functional, Canis lupus familiaris.
Experiment [23] relates to Mus musculus. Nature of the experiment: Tested for the ability to alter the spontaneous activity in mice at 10.0 mg/kg. The experiment is classed as functional.
The test system of experiment [24] is Mus musculus. Nature of the experiment: Tested for the ability to alter the spontaneous activity in mice at 2.5 mg/kg. The format is functional.
Experiment [25] concerns Mus musculus. Nature of the experiment: Tested for the ability to alter the spontaneous activity in mice at 5.0 mg/kg. The experiment is classed as functional.
Experiment [26] concerns Mus musculus. Put plainly: Tested for the ability to alter the spontaneous activity in mice at 7.5 mg/kg. The format is functional.
The subject of experiment [27] is Mus musculus. Put plainly: Tested for the ability to change in rectal temperature in mice at 10.0 mg/kg. The format is functional.
Experiment [28] deals with Mus musculus. Nature of the experiment: Tested for the ability to change in rectal temperature in mice at 2.5 mg/kg. The format is functional.
Experiment [29] has as its system Mus musculus. Nature of the experiment: Tested for the ability to change in rectal temperature in mice at 5.0 mg/kg. The format is functional.
Experiment [30] has as its system Mus musculus. Put plainly: Tested for the ability to change in rectal temperature in mice at 7.5 mg/kg. The format is functional.

`CCC(O)CCc1cc(O)c2c(c1)OC(C)(C)[C@@H]1CCC(C)=CC21` (stereo partly drawn): the Average score is 4.5 in the experiment with Canis familiaris [1], -45% in the experiment with Canis familiaris [3], 1 in the experiment on Canis familiaris [4] and 2 in the experiment with Canis familiaris [5]. In addition, the Change in the experiment with Canis familiaris [2] is listed as -12%. Also, the Activity with Mus musculus [6] is reported as 108; in the experiment on Mus musculus [7], 86; with Mus musculus [8] it was 7; in the experiment on Mus musculus [9], 27; in the experiment with Mus musculus [10] it was 13. For the same compound, the Change in temparature in the experiment on Mus musculus [11] was -1.3 °C; in the experiment with Mus musculus [12] it was -2.8 °C; in the experiment with Mus musculus [13], -7.6 °C; in the experiment on Mus musculus [14], -4.1 °C; in the experiment with Mus musculus [15], -0.4 °C.

In the case of `CCC(O)CCc1cc(O)c2c(c1)OC(C)(C)[C@@H]1CCC(CO)=CC21` (stereo partly drawn), the results for the Average score with Canis familiaris [1] and in the experiment on Canis familiaris [16] were 1 and 3, respectively. In addition, the Activity was 33 in the experiment on Mus musculus [8], 81 in the experiment with Mus musculus [10], 26 with Mus musculus [17] and 59 with Mus musculus [18]. Besides, the Change in temparature is -0.4 °C with Mus musculus [19], -3 °C with Mus musculus [13], -4.3 °C in the experiment on Mus musculus [20] and -0.2 °C in the experiment on Mus musculus [21].

For `CCCCCc1cc(O)c2c(c1)OC(C)(C)[C@@H]1CCC(C)=C[C@@H]21` [DRONABINOL], the Average score in the experiment with Canis familiaris [1] amounted to 3; with Canis familiaris [22] it was 4; with Canis familiaris [5], 0. Further, the Change in the experiment on Canis familiaris [2] is -39%; in the experiment with Canis familiaris [3], -46%. Besides, the Activity was determined as 6 in the experiment with Mus musculus [23], 59 with Mus musculus [24], 20 in the experiment on Mus musculus [25] and 17 with Mus musculus [26]. For the same compound, the Change in temparature in the experiment with Mus musculus [27] is -4.2 °C; with Mus musculus [28] it was -2.6 °C; with Mus musculus [29], -3.6 °C; in the experiment with Mus musculus [30], -3.8 °C.

The record behind these values is ChEMBL document CHEMBL1121985, “3'-Hydroxy- and (+/-)-3',11-dihydroxy-delta 9-tetrahydrocannabinol: biologically active metabolites of delta 9-tetrahydrocannabinol” (1982).
